These results are taken from patent US20110112057A1, “Sequential administration of 20,20,21,21,21-pentafluoro-17-hydroxy-11Beta-[4-(hydroxyacetyl)phenyl]-19-nor-17Alpha-pregna-4,9-dien-3-one and one or more progestogens for the treatment of gynaecological disorders” (BAYER SCHERING PHARIMA AKTIENGESELL SCHAFT, priority 2008, published 2011).

The test system of data set [1] is women of reproductive age. Nature of the data set: randomised study of sequential treatment cycles with progesterone receptor antagonist followed by a progestogen. It counts as in vivo. As for the experimental part: Women of reproductive age are treated in a randomised study sequentially in two treatment cycles with 20,20,21,21,21-pentafluoro-17-hydroxy-11β-[4-(hydroxyacetyl)phenyl]-19-nor-17α-pregna-4,9-dien-3-one. For this purpose, 20,20,21,21,21-pentafluoro-17-hydroxy-11β-[4-(hydroxyacetyl)phenyl]-19-nor-17α-pregna-4,9-dien-3-one is administered to the women in each case for 84 days with a daily dose of between about 1 mg and about 50 mg, followed by intake of a progestogen over a period of about 10 to 14 days. This complete treatment cycle is repeated once.

Data set [2] concerns endometrium of patients with symptomatic uterine leiomyomata. Particulars: after use for 3 months (Williams 2007); cited from earlier work.
Data set [3] deals with healthy, tube-ligated women. The data set is described as follows: randomised study on the effect of lonaprisan in healthy, tube-ligated women. The data set is classed as in vivo. How it is done: 36 healthy, tube-ligated women from 24 to 43 years of age were subjects in a randomised study on the effect of lonaprisan. For this purpose, the women were divided into three groups: 7 women received placebo, 14 women 1 mg of lonaprisan and 15 women 10 mg of lonaprisan over a period of 3 months, once a day.

Setting [4] is: 1 mg or 10 mg lonaprisan once a day over 3 months, not observed in placebo group.

Turning to `C[C@]12C[C@H](c3ccc(C(=O)CO)cc3)C3=C4CCC(=O)C=C4CC[C@H]3[C@@H]1CC[C@@]2(O)C(F)(F)C(F)(F)F` [20,20,21,21,21-pentafluoro-17-hydroxy-11β-[4-(hydroxyacetyl)phenyl]-19-nor-17α-pregna-4,9-dien-3-one], in data set [1] (84 days, daily dose about 1 mg to about 50 mg), the “bleeding pattern during the treatment phase” value is on record as “amenorrhoea or a greatly reduced bleeding”. For the same compound, the “bleeding after sequential treatment with the progestogen” value in data set [1] (84 days, daily dose about 1 mg to about 50 mg, followed by a progestogen for about 10 to 14 days, cycle repeated once) is on record as “menstrual bleeding following administration of the progestogen”. For the same compound, the “endometrial biopsies: persistent changes in the endometrium” value in data set [1] (after completion of each treatment cycle) is reported as “no persistent changes in the endometrium”.
For the compound `COC[C@]1(OC)CC[C@H]2[C@@H]3CCC4=CC(=O)CCC4=C3[C@@H](c3ccc(/C=N/O)cc3)C[C@@]21C` [asoprisnil], in data set [2], the endometrial pattern diagnosed entry is given as “non-physiological secretory effect” and the endometrial vessels entry is listed as “thickening of the smooth muscle cell layer surrounding the endometrial vessels”.
Turning to `CC(=O)c1ccc([C@H]2C[C@@]3(C)[C@@H](CC[C@@]3(O)C(F)(F)C(F)(F)F)[C@@H]3CCC4=CC(=O)CCC4=C32)cc1` [lonaprisan, 11β-(4-acetylphenyl)-20,20,21,21,21-pentafluoro-17-hydroxy-19-nor-17α-pregna-4,9-dien-3-one], in data set [3] (setting [4]), the bleeding pattern entry is “amenorrhoea or a greatly reduced bleeding” and the effect on ovulation entry is given as “inhibition of ovulation”. Besides, the “menstrual bleeding after discontinuation” value in data set [3] (after discontinuation of lonaprisan) is given as “spontaneous return of menstrual bleeding”. In addition, the “endometrial biopsies: persistent changes in the endometrium” value in data set [3] (after the first menstrual bleeding after completion of the treatment phase) is “no persistent changes in the endometrium”.
